Source: US7576054B2, “Compositions and methods for treating bacteria” (Biosynexus Incorporated, priority 2005, dated 2009)
Entries after “also recorded” stand apart in the source; their conditions may differ. Bridge positions count the residues as written; N and C are the ends. Square brackets hold non-standard residues; d marks the D form. Peptide text beside a SMILES is read from it. * marks the point of attachment. Ileψ(thiazoline)Cys = CC[C@H](C)[C@H](N)C1=N[C@H](C(=O)*)CS1; dOrn = NCCC[C@@H](N)C(=O)O

Key:
[1] = test system: Staphylococcus aureus ATCC #6538; assay: Inoculated partial thickness wounds in pig; format: in vivo; conditions: treated twice per day, mean ± SD
Procedure: Experimental animals. A young female specific pathogen free (SPF: Looper Farms, North Carolina) pig weighing 25-30 kg was kept in house for two weeks prior to initiating the experiment. The animal was fed a basal diet ad libitum and housed individually in animal facilities (meeting American Association for Accreditation of Laboratory Animal) with controlled temperature (19-21° C.) and lights (12 h/12 h LD). The experimental animal protocols used for this study followed the federal guidelines for the care and use of laboratory animals (U.S. Department of Health and Human Services, U.S. Department of Agriculture). Animals were monitored daily for any observable signs of pain or discomfort. […] A small amount of the inoculum suspension was plated onto culture media to quantitate the exact concentration of viable organisms prior to the experiment. […] At each sampling time, sites were cultured quantitatively. […] Serial dilutions were made and scrub solutions were quantitated using the Spiral Plater System that deposits a small defined amount (50 μl) of suspension over the surface of a rotating agar plate. […]

S. aureus [2] = assay: Suture skin infection (deep tissue infection) mouse model; format: in vivo; conditions: deep cut in mouse, S. aureus introduced into the incision; FIG. 13
Procedure: It was determined whether nisin and mupirocin, either alone or in combination with each other, would be able to treat S. aureus in a deep tissue infection model. A suture skin infection model was generated in which a deep cut (e.g., one needing sutures to close) was made in a mouse and S. aureus introduced into the incision. […] Thus, a combination of nisin and mupirocin can be used to treat a deep tissue infection as well as a […] infection.

P. aeruginosa [3] = assay: P. aeruginosa infection in abraded mouse skin; format: in vivo; conditions: FIG. 4
P. aeruginosa [4] = conditions: previously shown; cited from earlier work
S. aureus [5] = assay: Mouse skin infection model: S. aureus infection in abraded mouse skin; format: in vivo; conditions: for efficacy compared with independent administration of nisin: PEG ointment or G&W petrolatum base bacitracin formulation, FIG. 2; for additive or synergistic effect when combined with nisin: skin infection, combined with nisin (See Example 1)
Procedure: (§1) Mouse Skin Infection Model: An overnight culture of S. aureus grown in tryptic soy broth (SA8; range from 1 to 6×10^9 CFUs/mL) was centrifuged at 4000×g for 10 minutes and resuspended in an equal volume of phosphate buffered saline (PBS). The bacteria were diluted to a percent transmittance of 40 (Spectronic 20D+) and diluted a subsequent 1:1000 in PBS for a final bacteria concentration of about 3×10^5. SKH1 (hrhr) hairless mice (Charles River) were sedated with 0.2 mL of ketamine (80 mg/kg) and xylazine (32 mg/kg) delivered intraperitoneally. The upper back of the mice were scrubbed with a 70% alcohol wipe and allowed to dry. Fine abrasions were made on the backs' of the mice between the shoulders using 150 grit sandpaper. Bacteria were swabbed over the abraded area with a sterile, cotton-tipped applicator until the area was saturated with the solution.
Topical Ointment: 74 g of PEG 400 and 24 g of PEG 3350 were added to a 250 mL glass beaker and heated until all of the PEG 3350 was melted. The solution was stirred well and allowed to cool to room temperature, which results in a smooth, opaque ointment. Powdered nisin and bacitracin were added to the ointment on a w/w basis and stirred until homogenously mixed. For formulations containing mupirocin, 1 g of Bactroban Ointment was weighed into a container and powdered nisin added to 2% or 6% (w/w) and mixed well. Lysostaphin was first dissolve to a concentration of about 150 mg/mL in DI water before mixing into the ointment to give a final concentration of 2% (w/w).
Treatment of Infected Skin with Topical Ointment: Treatments aimed to eradicate S. aureus skin infections in the mouse model were started on the morning after infection (Day 1). About 0.1 g of the topical ointments containing nisin (0, 2, or 6% w/w), mupirocin (0 or 2%), bacitracin (0 or 500U), and lysostaphin (0 or 2% w/w) were swabbed over the infected area 3 times a day on Days 1 and 2 using a sterile, polyester-tipped applicator. The mice were sacrificed by CO2 asphyxiation on the morning of Day 3 and a 0.5-cm^2 patch of skin around the infected area was excise. The skin sample was dissected and placed into a test tube containing 1 mL of 5 mg/mL proteinase K, 20 mg/mL esterase, and 20 mg/mL activated charcoal in PBS to neutralize the activity of the antibacterial agents. Bacteria were dislodged from the skin sample by sonication: 2 minute treatments per sample with alternating 5 seconds at 3 W and 5 seconds at 0 W in a Virsonic 600 with microtip (VirTis). After mixing by vortex, 50 μL of each sample was streaked onto blood agar plates, incubated at 37° C. overnight, and the colonies were counted and compared to untreated controls.
For the following data, except where noted in FIG. 2, all antibiotic formulations were in a common polyethylene glycol (PEG) ointment (PEG 400 plus PEG 3350).

S. aureus [6] = assay: In vitro MIC of nisin alone or in combination (log reduction of viable S. aureus); format: cell-based; conditions: FIG. 11
Procedure: In order to determine if nisin could function in a synergistic way with other antimicrobials to treat (e.g., kill and/or inhibit growth of) bacteria in vitro, the minimum inhibitory concentration (MIC) of nisin alone or nisin in combination with either mupirocin, neomycin or gentamicin were tested. The MIC was determined by calculating the log reduction of viable S. aureus following incubation with the amounts of nisin and other antimicrobials as indicated in FIG. 11.

[7] = test system: S. aureus strain resistant to mupirocin; assay: Mupirocin-resistant S. aureus infection in abraded mouse skin; format: in vivo; conditions: FIG. 3
Procedure: as §1
Topical Ointment: 74 g of PEG 400 and 24 g of PEG 3350 were added to a 250 mL glass beaker and heated until all of the PEG 3350 was melted. […]
Treatment of Infected Skin with Topical Ointment: Treatments aimed to eradicate S. aureus skin infections in the mouse model were started on the morning after infection (Day 1). […] After mixing by vortex, 50 μL of each sample was streaked onto blood agar plates, incubated at 37° C. overnight, and the colonies were counted and compared to untreated controls. […]

S. aureus [8] = assay: Superficial skin abrasion / superficial wound skin infection model; format: in vivo; conditions: for synergy with mupirocin in the skin infection model: used in combination with mupirocin; for synergy with nisin in the skin infection model: used in combination with nisin
Procedure: Mice provided a superficial skin abrasion and inoculated with S. aureus as described in Example 2 were treated with a composition comprising a combination of 6% nisin and 0.1% gentamicin.
In order to determine if nisin could function in a synergistic way with other antimicrobials to treat (e.g., kill and/or inhibit growth of) bacteria in a superficial wound model (See Example 2), nisin was used in combination with either neomycin or gallidermin and tested.
In order to determine if nisin or gallidermin could function in a synergistic way with other antimicrobials to treat (e.g., kill and/or inhibit growth of) bacteria in a superficial wound model (See Example 2), nisin or gallidermin were used in combination with either gentamicin and mupirocin, respectively, and tested. Nisin did synergize with gentamicin and gallidermin did synergize with mupirocin to reduce bacterial counts in the skin infection model.
In order to determine if mupirocin could function in a synergistic way with bacitracin to treat (e.g., kill and/or inhibit growth of) bacteria in a superficial wound model (See Example 2), mupirocin was used in combination with bacitracin and tested for the ability to treat bacteria.

Compound	ability to synergize in vitro with nisin (S. aureus [6])	synergy with mupirocin in the skin infection model (S. aureus [8])	efficacy compared with independent administration of nisin (S. aureus [5])	additive or synergistic effect when combined with nisin (S. aureus [5])	synergy with nisin in the skin infection model (S. aureus [8])	further results
C/C(=C\C(=O)OCCCCCCCCC(=O)O)C[C@@H]1OC[C@H](C[C@@H]2O[C@H]2[C@@H](C)[C@H](C)O)[C@@H](O)[C@H]1O [Mupirocin, mupirocin]	none of the antimicrobials tested (i.e., mupirocin, neomycin, and gentamicin) displayed the ability to synergize in vitro with nisin	–	–	–	–	Av. Count (S. aureus recovered from wounds) ([1]; Day 7 post treatment): 1.63 ± 1.42 Log cfu/ml; Av. Count (S. aureus recovered from wounds) ([1]; two days after initial treatment): 4.96 ± 0.8 Log CFU/ml; efficacy in treating S. aureus in suture infection model (S. aureus [2]): very little efficacy; additional activity added to the nisin formulation (P. aeruginosa [3]): does not add any additional activity; activity against P. aeruginosa (P. aeruginosa [4]): poor activity; decrease in infectious CFUs (S. aureus [5]; abraded mouse skin, drug alone in PEG ointment, 3 times a day on Days 1 and 2, skin sampled Day 3, vs untreated controls, FIG. 1): 3 logs; animals cleared of infection (S. aureus [5]; abraded mouse skin, topical ointment 3 times a day on Days 1 and 2, FIG. 1): Neither drug alone was able to completely clear the infection; activity against mupirocin-resistant S. aureus strain [7]: minimal activity
CC[C@H](C)[C@H](N)C1=N[C@H](C(=O)N[C@@H](CC(C)C)C(=O)N[C@H](CCC(=O)O)C(=O)N[C@H](C(=O)N[C@H]2CCCCNC(=O)[C@H](CC(N)=O)NC(=O)[C@@H](CC(=O)O)NC(=O)[C@H](Cc3cnc[nH]3)NC(=O)[C@@H](Cc3ccccc3)NC(=O)[C@H]([C@@H](C)CC)NC(=O)[C@@H](CCCN)NC2=O)[C@@H](C)CC)CS1 [bacitracin] ({Ileψ(thiazoline)Cys}-L[dE]IK[dOrn]I[dF]H[dD]N; lactam 4-C)	–	did not synergize with bacitracin, nor was there an additive benefit; also recorded: does not synergize with or provide additive benefit together with bacitracin	None of these antibacterial agents administered independently, or administered in a composition comprising nisin, were significantly more efficacious than the independent administration of nisin	no additive or synergistic effect was observed	–	–
gallidermin	–	did synergize	–	–	did not synergize	–
gentamicin	none of the antimicrobials tested (i.e., mupirocin, neomycin, and gentamicin) displayed the ability to synergize in vitro with nisin	–	–	–	did synergize	–
lysostaphin	–	–	None of these antibacterial agents administered independently, or administered in a composition comprising nisin, were significantly more efficacious than the independent administration of nisin	no additive or synergistic effect was observed	–	–
neomycin	none of the antimicrobials tested (i.e., mupirocin, neomycin, and gentamicin) displayed the ability to synergize in vitro with nisin	–	–	–	did not synergize	–
